Experimental data reported in patent US9572862B2, “Methods for promoting lipolysis and oxidation in liver and adipose tissue using catestatin” (The Regents of the University of California, priority 2012, dated 2017).
Entries after “also recorded” stand apart in the source; their conditions may differ. No end group written: not given here.

Tests used:
Format in all cases: in vivo
Chga-KO mice = test: Chronic CST administration to Chga-KO mice: adiposity, plasma lipids, leptin
Protocol: FIG. 1. Plasma parameters of wild-type (WT) and Chga-KO mice treated with saline or CST. (A) Plasma CST from saline or CST (5 μg/g BW, i.p./day) treated WT mice (28 week old) on normal chow (NCD) and high fat diet (60% fat for 16 weeks) as well as from Chga-KO mice (28 week old) on NCD. Body weights (B) and epididymal fat pad size normalized to body weight (C) in 28 week old WT and Chga-KO mice treated with saline or CST for 12 days. Plasma triglyceride (TG) (D), glycerol (E), non-esterified fatty acids (NEFA) (F), and leptin (G) in 28 week old WT and Chga-KO mice after treatment with saline or CST for 12 days. (H) Leptin in adipocyte culture media after treatment with saline or CST.
FIG. 2. Comparison of epididyaml fat pads between saline or CST-treated Chga-KO mice. Adipose tissue was compared after 12 days of treatment with saline (A) or CST (5 μg/g BW, i.p./day) (B). *indicates epididymal fat pad.
(§1) Adult male (7 month old) WT (31.8±1.2 g) and Chga-KO (39.2±1.5 g) mice in the mixed genetic background (129SvJ×C57BL/6) were studied. Both genotypes were generated from the original founder carrying mixed genotype (50% 129SvJ, 50% C57BL/6) and were maintained by sibling mating. Animals were kept in a 12 hr dark/light cycle and fed standard chow ad libitum. Male C57BL/6 mice, 8 week old, were fed 60% high fat diet (D12492: Research Diets, Inc., New Brunswick) for 16 weeks before using for experiments. Male leptin-deficient (C57BL/6J-Ob/Ob) mice from the Jackson Laboratory were maintained on a standard chow diet. The Institutional Animal Care and Utilization Committee approved all procedures. Chga-KO, DIO and Ob/Ob mice were treated daily with saline or CST (5 μg/g BW, i.p.; 12 days for Chga-KO mice and 16 days for DIO and Ob/Ob mice).
(§2) Mice were fasted for 12 hr prior to blood draw. Triglycerides (TG) and non-esterified fatty acids (NEFA) were assayed using kits from Wako Diagnostics (Richmond, Va.). Glycerol was assayed using a kit from Sigma (St Louis, Mo.). Media from the explant cultures and mouse serum were analysed for glycerol and NEFA as a measure of lipolysis. ELISA kits were used to determine plasma levels of leptin, adiponectin (Millipore, Billerica, Mass.) and CST (Bachem, Torrance, Calif.). For CST assay, plasma samples and reference standards were passed through mini C18 columns and the flow-through fractions were assayed. The same kits were used for measurements in culture media.

HFD-fed CST-KO mice = test: CST supplementation in HFD-fed CST-KO mice
Source text: FIG. 12. Metabolic phenotypes in HFD-fed CST-KO mice. (A) CST-KO mice eat more 60% HFD than WT. (B) CST-KO mice gained more weight than WT. (C) Heightened glucose resistance at baseline in CST-KO mice compared to WT mice. […] Figures in parentheses indicate number of animals.

liver of Chga-KO mice = test: Hepatic gene expression by real-time PCR after CST; conditions: CST 12 days
Protocol: FIG. 4. Effects of CST on hepatic expression of genes involved in lipogenesis and fatty acid oxidation. Relative mRNA expression of genes involved in fatty acid oxidation in liver of WT and Chga-KO mice after treatment with saline or CST (5 μg/g BW, i.p./day) for 12 days: carnitine palmitoyltransferase 1a (Cpt1α) (A), peroxisome proliferator-activated receptor-alpha (Pparα) (B), acyl-CoA oxidase 1 (Acox1) (C) and uncoupling protein 2 (Ucp2) (D). (E) Relative expression of genes involved in lipogenesis in liver of Chga-KO mice after treatment with saline or CST (5 μg/g BW, i.p./day) for 12 days: sterol regulatory element-binding protein 1 (Srebp-1), peroxisome proliferator-activated receptor-gamma (Pparγ), glycerol-3-phosphate acyltransferase (Gpat4) and Cluster of Differentiation 36 (Cd36).
RNA was extracted using a kit (RNeasy Plus, Qiagen, Valencia, Calif.) according to the manufacturer's specifications. After DNase digestion, 100 ng of RNA was transcribed into cDNA in a 20-μl reaction using a High Capacity cDNA kit (Invitrogen, Carlsbad, Calif.), analyzed, and amplified. PCR was performed in a 25-μl reaction containing 5 μl of cDNA (one-fifth diluted), 2×SYBR Green PCR Master Mix, and the primers described in Table 1 (400 nM each). Differences in cycle threshold values (ΔCt) between target and the housekeeping gene GAPDH were used to calculate the levels of expression.

Ob/Ob mice = test: CST administration to Ob/Ob mice for 16 days
Protocol: FIG. 7. Effects of CST administration to DIO and Ob/Ob mice on food intake, body weight, adipose tissue weight, and lipolysis. CST (5 μg/g BW, i.p./day) or saline was administered to DIO and Ob/Ob mice for 16 days. Food intake for DIO mice (A) and Ob/Ob mice (B) was measured every other day. Percent changes in final body weight and WAT mass (as % of body weight) were determined for DIO (C) and Ob/Ob (D) mice. Plasma glycerol (E) and NEFA (F) were quantified for DIO and Ob/Ob mice at the end of CST treatment.
as §1, §2

[1] = CST 5 μg/g BW i.p./day for 12 days

SSMKLSFRARAYGFRGPGPQL [CST]
food intake (Chga-KO mice): did not increase food intake
body weight (Chga-KO mice; [1]): without affecting body weight
epididymal fat pad size (Chga-KO mice; [1]): reduced epididymal fat pad size to WT level
plasma NEFA level (Chga-KO mice; CST 12 days): increased
plasma TG levels (Chga-KO mice; CST 12 days): decreased plasma TG levels
plasma glycerol level (Chga-KO mice; CST 12 days): increased
plasma leptin (Chga-KO mice; CST 12 days): lowered plasma leptin to a level below WT
basal plasma insulin level (HFD-fed CST-KO mice): decreased; also recorded: reduced hyperinsulinemia
insulin sensitivity (IP-ITT) (HFD-fed CST-KO mice; CST 5 μg/g BW): improved insulin sensitivity; also recorded: reversed glucose resistance to glucose tolerance
liver mRNA expression of Acox (liver of Chga-KO mice): augmented
liver mRNA expression of Cd36 (liver of Chga-KO mice): stimulated
liver mRNA expression of Cpt1α (liver of Chga-KO mice): augmented
liver mRNA expression of Gpat4 (liver of Chga-KO mice): stimulated
liver mRNA expression of Pparα (liver of Chga-KO mice): augmented
liver mRNA expression of Pparγ (liver of Chga-KO mice): no effect
liver mRNA expression of Srebp-1 (liver of Chga-KO mice): no effect
liver mRNA expression of Ucp2 (liver of Chga-KO mice): augmented
food intake (Ob/Ob mice; CST 5 μg/g BW i.p./day 16 days): started to level off
adipose tissue mass (Ob/Ob mice; CST 16 days): not reflected in any decrease in body weight or adipose tissue mass
body weight (Ob/Ob mice; CST 16 days): not reflected in any decrease in body weight
plasma concentration of NEFA (lipolysis) (Ob/Ob mice; CST 16 days): not affected
plasma concentration of glycerol (lipolysis) (Ob/Ob mice; CST 16 days): not affected
